In ChEMBL document CHEMBL3585318, “Effect of water solvation on the lipophilicity of isomeric pyrimidine-carboxamides” (Bioorg Med Chem, 2015):

Columns and labels:
Type in all cases: physicochemical
[1] = Dissociation constant, pKa of the compound
[2] = Partition coefficient of buffer-octanol system, logP of the compound by shake-flask method
[3] = Lipophilicity, log D of the compound at pH 7.4 by UV/Vis spectroscopy based shake-flask method; settings: buffer

| SMILES | pKa [1] | logP [2] | logD [3] |
| --- | --- | --- | --- |
| CCNC(=O)c1nc(OC)cc(N(C)C)n1 | 2.9 | 1.1 | 1 |
| O=C1CCCc2cnccc21 |  | 1.5 | 1 |
| O=C1CCCc2ncccc21 |  | 1.2 | 0.9 |
| O=C1CCCc2ccncc21 |  | 0.9 | 0.8 |
| CCNC(=O)c1cc(OC)nc(N(C)C)n1 | 2.4 | 2.5 | 2.6 |
| O=C1CCCc2cccnc21 |  | 0.4 | 0.2 |
| CCNC(=O)c1cc(N(C)C)nc(OC)n1 | 3.8 | 1.7 | 1.6 |
